Molecular target: T1, endogenous PTHR in ROS 17/2.8 cells (Rattus norvegicus, UniProt P25961)
T1 construct: ROS 17/2.8 cells are rat osteosarcoma cells and express the endogenous PTHR; endogenous in cells; host or cells: ROS 17/2.8 rat osteosarcoma cells
T1 sequence (P25961 27-591): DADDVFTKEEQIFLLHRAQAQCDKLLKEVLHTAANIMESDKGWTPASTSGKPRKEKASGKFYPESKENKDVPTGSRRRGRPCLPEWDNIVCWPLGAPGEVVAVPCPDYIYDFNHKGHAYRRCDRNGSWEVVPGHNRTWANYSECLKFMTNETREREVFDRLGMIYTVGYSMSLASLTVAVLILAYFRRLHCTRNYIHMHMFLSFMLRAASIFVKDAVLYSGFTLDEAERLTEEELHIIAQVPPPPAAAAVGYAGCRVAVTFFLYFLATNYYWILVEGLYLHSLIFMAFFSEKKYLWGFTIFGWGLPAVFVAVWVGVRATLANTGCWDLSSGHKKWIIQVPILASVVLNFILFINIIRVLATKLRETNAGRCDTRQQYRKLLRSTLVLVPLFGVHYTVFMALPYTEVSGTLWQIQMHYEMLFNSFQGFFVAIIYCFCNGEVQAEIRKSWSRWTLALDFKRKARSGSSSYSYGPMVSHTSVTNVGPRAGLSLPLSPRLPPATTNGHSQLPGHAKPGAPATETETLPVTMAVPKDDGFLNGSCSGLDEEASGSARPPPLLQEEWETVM
Experiment: Competition binding in intact ROS 17/2.8 cells with 125I-PTH(1-34) tracer
Conditions: 125I-[Nle8,21,Tyr34]rPTH(1-34)NH2 tracer
Description: Cell Culture—Cells were cultured at 37° C. in a humidified atmosphere containing 5% CO2 in Dulbecco's modified Eagle's medium (DMEM), supplemented with 10% fetal bovine serum (HyClone, Logan Utah), 100 units/ml penicillin G, and 100 ug/ml streptomycin penicillin G/streptomycin (Invitrogen Corp. Carlsbad, Calif.). For binding and cAMP studies performed with the intact PTHR, the HKRK-B7 and ROS 17/2.8 cell lines were used. HKRK-B7 cells are derived from the porcine kidney cell line LLC-PK1 and express, via stable DNA transfection, the wild-type human PTHR at an approximate surface density of 950,000 PTH-binding sites per cell. […]
Receptor binding—Binding to the wild-type human PTHR in intact HKRK-B7 cells and ROS 17/2.8 cells was assessed using ^125I-PTH(1-34) as a tracer radioligand, as described (Shimizu, M., (2001) Endocrinology 142:3068-3074). […] The binding mixture was then removed by aspiration, the cells were rinsed three times with binding buffer, lysed in 1 M NaOH, and the entire lysate was counted for gamma-irradiation in a gamma counter. Binding to PTHR-delNt in COS-7 cell membranes was assessed in 96-well, vacuum filtration plates (Multiscreen-Durapore HV, […] membranes, Millipore Corp., Millford, Mass.) using ^125I-[Aib^1,3,M]PTH(1-15)NH2 as a tracer radioligand, as described (Dean, T., (2006) Mol Endocrinol 20:931-942). […]

IC50: 5.8 µM
Sequence: SVSEIQLMHNLGKHLNSMEEVEWLRKKLQDV [Arg^20→Glu]

Source: US8143374B2, “Polypeptide derivatives of parathyroid hormone (PTH)” (The General Hospital Corporation, priority 2006, dated 2012)
